According to the METLIN SMRT retention time set (Domingo-Almenara et al. 2019):

Test: gradient 5% acetonitrile 3 min, to 50% in 2 min, to 85% in 15 min, held 3 min, 100 µL/min
Settings: column: Zorbax Extend-C18 2.1 x 50 mm; eluents: water / acetonitrile, 0.1% formic acid
Procedure, shortened: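 A Zorbax Extend-C18 column (2.1 × 50 mm, 1.8 μm) run at 100 μL/min with water and acetonitrile, both containing 0.1% formic acid, separated mixtures of ~100 pure standards. The HPLC was coupled to a quadrupole time-of-flight mass spectrometer operated in positive and negative ionization mode, with dead and dwell volumes of 40 μL and 900 μL. Each retention time was taken from a computationally picked adduct peak that was then manually inspected.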

SMILES: CCN1CCC2(CC1)N=C(c1ccccc1)CC(c1cc(Cl)ccc1O)N2 (stereo not drawn)
- RP-LC retention time: 621 s

SMILES: CCOc1ccc(OCC)c(NS(=O)(=O)c2cc(-c3cc(CC)no3)cs2)c1
- RP-LC retention time: 1090 s

SMILES: Cc1ccc(-c2noc(-c3cccn4c(=O)n(Cc5ccc6c(c5)OCO6)nc34)n2)cc1
- RP-LC retention time: 1010 s

SMILES: Cc1cc(C)c(CNC(=O)C2CCN(c3cnc(N4CCSCC4)nc3)CC2)c(C)c1
- RP-LC retention time: 959 s

SMILES: CCn1cc(-c2nc(CC(=O)Nc3ccc(OC)cc3)cs2)c2cccnc21
- RP-LC retention time: 858 s

SMILES: CCOC(=O)C1CCN(c2ncccc2-c2nnc(-c3ccccc3)o2)CC1
- RP-LC retention time: 1010 s

SMILES: Cc1nc(-c2csc(S(=O)(=O)N3CCC(C(=O)NCc4ccc(Cl)cc4)CC3)c2)no1
- RP-LC retention time: 926 s

SMILES: COc1ccc(OC)c(C(O)CN2CCN(c3ccccc3F)CC2)c1 (stereo not drawn)
- RP-LC retention time: 677 s

SMILES: CCc1ccc(S(=O)(=O)c2cnc(N3CCN(c4cccc(C)c4)CC3)nc2N)cc1
- RP-LC retention time: 1220 s

SMILES: Cc1nc(C)c(C(=O)N2CC(N(CC(C)C)C3CCN(C)CC3)C2)s1
- RP-LC retention time: 567 s

SMILES: Cc1nc(C(=O)N2CCCn3ccnc3C2C(C)C)co1 (stereo not drawn)
- RP-LC retention time: 556 s

SMILES: COc1ccc(-c2nc(C)cc(C)c2CNS(=O)(=O)c2ccc(C#N)cc2)cc1
- RP-LC retention time: 636 s

SMILES: COCc1nc2cccnc2n1C1CCN(C(=O)Nc2ccc(Br)cc2)CC1
- RP-LC retention time: 747 s

SMILES: CCCNC(=O)N1CCCC1c1nc(-c2cccc(C(F)(F)F)c2)no1 (stereo not drawn)
- RP-LC retention time: 963 s

SMILES: Cc1ccc(NC(=O)N2CCC3(C2)C(=O)N(C)c2ccccc23)cc1 (stereo not drawn)
- RP-LC retention time: 814 s

SMILES: Cc1ccc(N2C(=O)CC(Nc3ccc(N4CCOCC4)cc3)C2=O)c(Br)c1 (stereo not drawn)
- RP-LC retention time: 618 s

SMILES: Cn1nnc2c(SCc3c(F)cccc3Cl)ncnc21
- RP-LC retention time: 933 s

SMILES: COc1cc(-c2nc3ncccn3c2Nc2ccc3c(c2)OCO3)ccc1O
- RP-LC retention time: 621 s

SMILES: Cc1ccc2[nH]c(=O)c(CCC(=O)NCCCN3CCCC3=O)cc2c1
- RP-LC retention time: 608 s

SMILES: Cn1c(=O)n(C)c2cc(S(=O)(=O)C3CCCCC3)c(NC(=O)C3CC3)cc21
- RP-LC retention time: 814 s

SMILES: CCCN(CC1CCOC1)S(=O)(=O)c1cccc(OC)c1 (stereo not drawn)
- RP-LC retention time: 881 s

SMILES: COc1ccc(-c2cn3c(n2)N(C(=O)c2cccs2)CCC3)cc1
- RP-LC retention time: 883 s

SMILES: COc1ccc(NC(=O)c2cccc(F)c2)c2ccccc12
- RP-LC retention time: 852 s

SMILES: Cc1ccc2cc(CCC(=O)N3CCN(c4ncccn4)CC3)c(=O)[nH]c2c1
- RP-LC retention time: 670 s

SMILES: CCn1c(=O)c2c(nc3n2CCCN3C2CCCCC2)n(C)c1=O
- RP-LC retention time: 899 s

SMILES: Fc1ccc(Nc2nc(-c3cccc(Cl)c3)cs2)nc1
- RP-LC retention time: 1190 s

SMILES: CCCCn1c(=O)c2ccccc2n(Cc2nc(-c3ccc(OCC)c(OC)c3)no2)c1=O
- RP-LC retention time: 968 s

SMILES: COCCNC(=O)C1(c2ccc(NC(=O)c3cccs3)cc2)CC1
- RP-LC retention time: 730 s

SMILES: Cn1c(=O)c(SCC(=O)NCc2ccccc2Cl)nc2cccnc21
- RP-LC retention time: 786 s

SMILES: CC(C)Oc1ccc(-c2noc(CN3N=NC4C(=O)N(c5cccc(Cl)c5)C(=O)C43)n2)cc1 (stereo not drawn)
- RP-LC retention time: 1040 s

SMILES: CCc1noc(-c2cnc3nc(C)ccc3c2Nc2ccccc2OC)n1
- RP-LC retention time: 629 s

SMILES: O=C(Nc1ccon1)c1ccc(-n2cccn2)nn1
- RP-LC retention time: 659 s

SMILES: COC(=O)Cn1c(C2CC(=O)N(c3ccc(OC)cc3)C2)nc2ccccc21 (stereo not drawn)
- RP-LC retention time: 709 s

SMILES: COC(=O)c1sc2ccccc2c1S(=O)(=O)N1CCC(C(N)=O)(N2CCCCC2)CC1
- RP-LC retention time: 652 s

SMILES: COc1ccc(-c2noc(C3CCCN3C(=O)Nc3cccc(C)c3C)n2)cc1 (stereo not drawn)
- RP-LC retention time: 858 s

SMILES: c1ccc(-n2ncc3cccnc32)cc1
- RP-LC retention time: 624 s

SMILES: CCCn1c(-c2cccc(C(=O)NCc3cccs3)c2)nc2cccnc21
- RP-LC retention time: 782 s

SMILES: O=C(Nc1ccc(F)cc1F)N1CCN(c2cc(-c3ccncc3)[nH]n2)CC1
- RP-LC retention time: 596 s

SMILES: COc1ccc(CNC(=O)C2CCCN(c3nnc4cccc(C)n34)C2)c(OC)c1 (stereo not drawn)
- RP-LC retention time: 688 s

SMILES: CCN1C(=O)c2cccnc2Sc2cc(NC(=O)Cc3ccccc3Cl)ccc21
- RP-LC retention time: 856 s

SMILES: O=c1c2oc3ccccc3c2ncn1Cc1nc(-c2cccc(Br)c2)no1
- RP-LC retention time: 1060 s

SMILES: COc1ccccc1NC(=O)C1CCCN(c2ncnc3c2nc2n3CCCCC2)C1 (stereo not drawn)
- RP-LC retention time: 805 s

SMILES: Cn1cc(C(=O)NCc2ccc(Cl)cc2)c(S(=O)(=O)N2CCSCC2)n1
- RP-LC retention time: 909 s

SMILES: CN(C)C(=O)c1ccc2c(c1)N(CC(=O)N1CCN(c3ccccn3)CC1)C(=O)CO2
- RP-LC retention time: 784 s

SMILES: CCCCN1CC(c2nc3ccccc3n2CC(=O)N(c2ccccc2)C(C)C)CC1=O (stereo not drawn)
- RP-LC retention time: 792 s

SMILES: CC(=O)Nc1ccc(CC(=O)NC(C)C(=O)N2CCCc3ccccc32)cc1 (stereo not drawn)
- RP-LC retention time: 685 s

SMILES: Cc1nc2cc(N3CCC(C(=O)O)CC3)cnc2nc1C
- RP-LC retention time: 611 s

SMILES: CSc1ccccc1CN1CCC(CNC(=O)c2cc(=O)c3ccccc3o2)CC1
- RP-LC retention time: 564 s

SMILES: CCOC(=O)Cc1ccc(NC(=O)N2CCN(c3ccc(=O)n(-c4ccc(F)cc4)n3)CC2)cc1
- RP-LC retention time: 789 s

SMILES: CC1(C(=O)NCc2ccccc2Cl)Cn2cnc(C(=O)NC3CCCCC3)c2C(=O)N1C1CC1 (stereo not drawn)
- RP-LC retention time: 840 s

SMILES: COCCn1cc(C(=O)Nc2ccc(F)cc2F)c2nn(-c3ccccc3)c(=O)c-2c1
- RP-LC retention time: 1010 s

SMILES: O=C(CSc1nc(-c2ccccc2Cl)ns1)Nc1nccs1
- RP-LC retention time: 818 s

SMILES: CCOc1ccc(-c2c(C#N)c(N)nc(SCC(=O)OCc3ccccc3)c2C#N)cc1
- RP-LC retention time: 997 s

SMILES: CCOc1ccc(-c2ccc(C)c(NC(=O)c3ccc(S(=O)(=O)N(C)C)cc3)c2)nn1
- RP-LC retention time: 778 s

SMILES: COc1ccc(-n2c(=O)c3sccc3n(Cc3nc(-c4ccc(Cl)c(F)c4)no3)c2=O)cc1
- RP-LC retention time: 1060 s

SMILES: O=C(c1ccc2c(c1)ncn2CCN1CCCC1)N1CCN(c2ccccc2F)CC1
- RP-LC retention time: 596 s

SMILES: Cc1nc(-c2csc(S(=O)(=O)N3CCCC(C(=O)NCCc4sccc4C)C3)c2)no1 (stereo not drawn)
- RP-LC retention time: 932 s

SMILES: O=C(NCc1ccco1)c1ccc(Cn2nc(N3CCN(c4ccccc4)CC3)ccc2=O)o1
- RP-LC retention time: 780 s

SMILES: Cc1cc(=O)n(CC#N)c(N2CCCCC2)n1
- RP-LC retention time: 655 s

SMILES: O=C1CC(c2cccc(Cl)c2)Cc2nc(N3CCN(c4ccccc4)CC3)ncc21 (stereo not drawn)
- RP-LC retention time: 1340 s

SMILES: CCCNC(=O)C1CCN(c2ccc(SCC(=O)Nc3ccccc3C(=O)OC)nn2)CC1
- RP-LC retention time: 666 s

SMILES: CCOC(=O)C1CCN(C(=O)C2CCCN(c3cnc4nc(C)c(C)nc4c3)C2)CC1 (stereo not drawn)
- RP-LC retention time: 689 s

SMILES: CSc1nc2ccc3nc(NC(=O)c4cc(C)no4)sc3c2s1
- RP-LC retention time: 1010 s

SMILES: Cc1nn(CC(=O)NCC2CCN(Cc3ccc(Cl)cc3)CC2)c(=O)c2noc(C)c12
- RP-LC retention time: 617 s

SMILES: O=C([C@@H]1C[C@H](F)CN1S(=O)(=O)c1ccc(Br)s1)N1CCCCC1
- RP-LC retention time: 839 s

SMILES: O=C(N[C@H]1C[C@@H]2C[C@H]1N(C(=O)Cc1cccs1)C2)c1ccccc1
- RP-LC retention time: 746 s

SMILES: CCOc1ccccc1NC(=O)Cn1ccnc1-c1ccnc(N2CCOCC2)c1
- RP-LC retention time: 638 s

SMILES: Cc1nn(CC(=O)NCCC(C)C)c(=O)c2nc(-c3ccccc3)sc12
- RP-LC retention time: 871 s

SMILES: CN(C)CCNC(=O)C1CCCN(c2ncnc3c2nc2n3CCCCC2)C1 (stereo not drawn)
- RP-LC retention time: 573 s

SMILES: Cc1cc(C)c(S(=O)(=O)N2CCCC2c2nc(-c3cccc(F)c3)no2)c(C)c1 (stereo not drawn)
- RP-LC retention time: 1270 s

SMILES: COCCN1C(=O)[C@H]2CN(Cc3ccc(C)cc3C)C[C@H]2C1=O
- RP-LC retention time: 644 s

SMILES: Clc1nc2nc3n(c2nc1Cl)CCC3
- RP-LC retention time: 761 s

SMILES: O=C1CC(c2noc(-c3cccc(Cl)c3)n2)CN1c1ccc(F)cc1 (stereo not drawn)
- RP-LC retention time: 1030 s

SMILES: C=CCN1C(=O)COc2ccc(-c3nc(NC(=O)c4ccc(Cl)cc4)sc3C)cc21
- RP-LC retention time: 1140 s

SMILES: CCNC(=O)c1cn(-c2ccc(SCC(=O)Nc3ccc4c(c3)OCCO4)nn2)cn1
- RP-LC retention time: 637 s

SMILES: O=C(Cn1nc(C(=O)N2CCCC2)c2ccccc21)Nc1cccc(Br)c1
- RP-LC retention time: 903 s

SMILES: O=C(NC1CC1)C1CCCN(c2ccc(Sc3ccc(Br)cc3)nn2)C1 (stereo not drawn)
- RP-LC retention time: 785 s

SMILES: COc1ccc(-n2c(=O)c(C(=O)NCc3ccc4c(c3)OCO4)c(O)c3cccnc32)cc1
- RP-LC retention time: 1090 s

SMILES: CCOc1cc(-c2cccc(Cl)c2)nc2ccc(C(=O)N3CCN(c4ccccn4)CC3)cc12
- RP-LC retention time: 692 s

SMILES: COc1ccc(C(=S)N2CCN(c3cccc(Cl)c3)CC2)cc1
- RP-LC retention time: 1210 s

SMILES: CN(C)S(=O)(=O)c1ccc2c(c1)N(CC(=O)NC1CCCCCCC1)C(=O)C1CCCCN21 (stereo not drawn)
- RP-LC retention time: 692 s

SMILES: Cc1cc(NC(=O)c2cc(Cl)ccc2Cl)n(C(C)C)n1
- RP-LC retention time: 775 s

SMILES: CCCCC(=O)N(C)CCc1noc(-c2ccc(C(=O)N3CCOCC3)cc2)n1
- RP-LC retention time: 686 s

SMILES: COc1ccc(-c2cn3c(CC(=O)NCc4cccc(Br)c4)csc3n2)cc1
- RP-LC retention time: 811 s

SMILES: Cc1cccc(N2CCN(C(=O)c3sc4ncccc4c3-n3cccc3)CC2)c1
- RP-LC retention time: 1060 s

SMILES: COc1cc(C(=O)Nc2cccc(N3CCCS3(=O)=O)c2)c([N+](=O)[O-])cc1OC
- RP-LC retention time: 681 s

SMILES: COC(=O)C1=CN(c2ccc(N(C)C)cc2)c2cc(F)ccc2S1(=O)=O
- RP-LC retention time: 926 s

SMILES: Cc1ccc(C)c(N2C(=O)CC(N3CCC(C(N)=O)CC3)C2=O)c1 (stereo not drawn)
- RP-LC retention time: 601 s
